In patent US20250367100A1, “GINSENOSIDE COMPOSITION, DAILY CHEMICAL AND USE” (INCIPIRIT TECH (GUANGZHOU) CO., LTD., priority 2023, published 2025):
Structures can show the parent of a compound that is named as a salt.

System: human epidermal keratinocytes
Assay: Proliferation of epidermal keratinocytes in a co-culture system of dermal papilla cells and epidermal keratinocytes
Type: cell-based
Conditions: 0.2 μg/ml, 2 μg/ml, 20 μg/ml, 200 μg/ml, FIG. 5
Description: Add 500 μl of human epidermal keratinocytes (30,000 cells/ml) to each well of a 24-well MULTIWELL plate, then add a 1.0 μm of cell culture insert, and culture for 1 day. The 1.0 μm of cell culture insert already contains 300 μl of dermal papilla cells (20,000 cells/ml). Subsequently, add 1 μl/well each of the ginseng extracts 1-7, the positive control minoxidil sulfate, and the blank control (DMSO), and continue culturing for 3 days. Remove the 1.0 μm of cell culture insert, add 50 μl/well of Cell Counting Kit-8 (Dojindo Molecular Technologies, Inc.), continue culturing for 2 hours, and determine cell number using a microplate reader (450 nm, Mix 0).

Structure (SMILES): Nc1cc(N2CCCCC2)nc(N)[n+]1OS(=O)(=O)[O-] [minoxidil sulfate]
- proliferation of keratinocytes in co-culture system: no effect in promoting the proliferation of keratinocyte
